Consider two compounds from paper PMC10530836, “Synthesis, Molecular Docking, and Biological Evaluation of Novel Anthranilic Acid Hybrid and Its Diamides as Antispasmodics” (International Journal of Molecular Sciences, 2023).

Assay type in all cases: cell-based
Assay [1] concerns Fusarium moniliforme ATCC 38932. Briefly: Antimicrobial activity, agar well diffusion. The settings on record: Dose 0.6 mg/disk, dwell = 6 mm. An excerpt: (§1) Twenty tested microorganisms including six Gram-positive bacteria (Bacillus subtilis ATCC 6633, Bacillus amyloliquefaciens 4BCL-YT, Staphylococcus aureus ATCC 25923, Listeria monocytogenes NBIMCC 8632, Enterococcus faecalis ATCC 19433), six Gram-negative bacteria (Salmonella enteritidis ATCC 13076, Klebsiella sp.—clinical isolate, Escherichia coli ATCC 25922, Proteus vulgaris ATCC 6380, Pseudomonas aeruginosa ATCC 9027), two yeasts (Candida albicans NBIMCC 74, Saccharomyces cerevisiae ATCC 9763), and six fungi (Aspergillus niger ATCC 1015, Aspergillus flavus, Penicillium sp., Rhizopus sp., Mucor sp.—plant isolates, Fusarium moniliforme ATCC 38932) from the collection of the Department of Microbiology at the University of Food Technologies—Plovdiv, Bulgaria, were selected for the antimicrobial activity test. The antimicrobial activity of the samples was determined by the agar well diffusion method. The tested bacteria B. subtilis and B. amyloliquefaciens were cultured on LBG agar at 30 °C. The test bacteria S. aureus, L. monocytogenes, E. faecalis, S. enteritidis, Klebsiella sp., E. coli, P. vulgaris, and P. aeruginosa were cultured on LBG agar at 37 °C for 24 h. The yeast C. albicans was cultured on MEA at 37 °C, while S. cerevisiae was cultured on MEA at 30 °C for 24 h. The fungi A. niger, A. flavus, Penicillium sp., Rhizopus sp., Mucor sp., and F. moniliforme were grown on MEA at 30 °C for 7 days or until sporulation. The inocula of the tested bacteria/yeasts was prepared by homogenization of a small amount of biomass in 5 mL of sterile 0.5% NaCl. The inocula of tested fungi were prepared by the addition of 5 mL of sterile 0.5% NaCl into the tubes. After stirring by vortex V-1 plus (Biosan), they were filtered and replaced in other tubes before use. The number of viable cells and fungal spores was determined using a bacterial counting chamber Thoma (Poly-Optik, GmbH, Bad Blankenburg, Germany). Their final concentrations were adjusted to 10^8 cfu/mL for bacterial/yeast cells and 10^5 cfu/mL for fungal spores and then inoculated in preliminarily melted and tempered at 45–48 °C LBG/MEA agar media. Next, the inoculated media were transferred in a quantity of 18 mL in sterile Petri plates (d = 90 mm) (Gosselin™, Hazebrouck, France) and allowed to harden. Then, six wells (d = 6 mm) per plate were cut, and triplicates of 60 μL of each extract were pipetted into the agar wells. The Petri plates were incubated in identical conditions. The antimicrobial activity was determined by measuring the diameter of the inhibition zones around the wells on the 24th and 48th h of incubation. Tested microorganisms with inhibition zones of 18 mm or more were considered sensitive; moderately sensitive were those in which the zones were from 12 to 18 mm; resistant were those in which the inhibition zones were up to 12 mm or completely missing.
For orientation: Agar diffusion results depend on both activity and mobility in agar.

Assay [2] has as its system Saccharomyces cerevisiae ATCC 9763. Kind of assay: Antimicrobial activity, agar well diffusion. The settings on record: Dose 0.6 mg/disk, dwell = 6 mm.
Excerpt: as §1

Assay [3] has as its system Mucor sp. Briefly: Antimicrobial activity, agar well diffusion. The settings on record: Dose 0.6 mg/disk, dwell = 6 mm.
Excerpt: as §1

Assay [4] concerns Candida albicans NBIMCC 74. Briefly: Antimicrobial activity, agar well diffusion. The settings on record: Dose 0.6 mg/disk, dwell = 6 mm.
Excerpt: as §1

Assay [5] relates to K-562, LAMA-84, T-24, CCL-1 cell lines. Kind of assay: MTT cell viability assay, cell line panel. The conditions noted are these: leukemic cells LAMA-84 and K-562; read-out: IC50 estimates. As for the experimental part:
Based on the PASS online and the ProToxII in silico calculations, the evaluation of the cytotoxic activity of the compounds was the other object of our investigation. A series of MTT experiments were conducted to evaluate the in vitro effects of the tested compounds on cell growth in both normal (murine fibroblast CCL-1 cells) and malignant human cell lines of leukemic (K-562, LAMA-84) and epithelial (T-24 bladder carcinoma cells) origin.
To evaluate the biocompatibility of the hybrid compounds, their in vitro antiproliferative activity was assessed in a panel of human malignant cell lines of different origin (K-562 and LAMA-84 suspension-growing myeloid leukemia cells, positive for the Philadelphia chromosome, and the urothelial bladder carcinoma cell line T-24 of adherent type). Non-malignant murine fibroblast cells (CCL-1) were also used as a screening platform. […]
The effects of the newly synthesized anthranilic derivatives on cell viability were measured using a validated colorimetric assay for evaluating cell viability, known as the Mosmann MTT method. […] The latter was dissolved in isopropyl alcohol solution containing 5% formic acid prior to absorbance measurement at 550 nm. Collected absorbance values were blanked against MTT and isopropanol solution and normalized to the mean value of untreated control (100% cell viability).

For `Nc1ccccc1C(=O)NCCc1cccc(Cl)c1` [Compound 3, 2-amino-N-(3-chlorophenethyl)benzamide], the “Inhibition Zones” value in assay [1], in assay [2], in assay [3] and in assay [4] was 15 mm throughout.

For orientation: IC50 means the midpoint of a concentration-inhibition curve. Turning to `O=C(Nc1ccccc1C(=O)NCCc1cccc(Cl)c1)c1ccccc1` [Compound 4b, 2-benzamido-N-(3-chlorophenethyl)benzamide], in assay [5], the IC50 was 30 to 60 µM.
